Experimental data from PMC10017046 (Science Advances, 2023).

What was measured:
MTLR [1] = settings: cited from earlier work
GI motility = settings: cited from earlier work; for GI motility activity: [51]
MTLR [2] = settings: cited from earlier work; remark: listed apart in the source
MTLR [3] = settings: camicinal; ref [51]; cited from earlier work
[4] = cited from earlier work
MTLR L341A = MTLR L341A (Homo sapiens, UniProt O43193, L341A); experiment: IP1 accumulation; format: cell-based; settings: MTLR-bearing alanine mutation of L341^7.39
MTLR [5] = settings: cited from earlier work; remark: listed apart in the source
gastroparesis = settings: ref [14], [15]; cited from earlier work
[6] = system: MTLR, substitution of E119^3.33 with aspartic acid; settings: E119^3.33 substituted with aspartic acid; ref [16]; cited from earlier work

MTLR L341A, sequence (O43193 whole entry L341A): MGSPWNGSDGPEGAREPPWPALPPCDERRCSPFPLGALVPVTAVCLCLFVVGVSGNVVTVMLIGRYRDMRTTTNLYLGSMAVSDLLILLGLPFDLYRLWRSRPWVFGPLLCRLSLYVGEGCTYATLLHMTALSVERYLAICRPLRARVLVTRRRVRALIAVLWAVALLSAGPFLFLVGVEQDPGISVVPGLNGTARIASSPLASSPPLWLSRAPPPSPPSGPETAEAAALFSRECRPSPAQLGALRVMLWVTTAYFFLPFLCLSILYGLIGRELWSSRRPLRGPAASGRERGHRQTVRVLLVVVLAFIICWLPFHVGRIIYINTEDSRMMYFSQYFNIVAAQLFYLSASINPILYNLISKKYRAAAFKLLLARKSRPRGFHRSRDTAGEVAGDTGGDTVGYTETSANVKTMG

Molecule: CC[C@H]1OC(=O)[C@H](C)[C@@H](O[C@H]2C[C@@](C)(OC)C[C@H](C)O2)[C@H](C)[C@@H](O[C@@H]2O[C@H](C)C[C@H](N(C)CC)[C@H]2O)[C@@]2(C)CC(C)=C(O2)[C@H](C)[C@@H](O)[C@H]1C [ABT-229]
- desensitization-inducing effect (MTLR [1]; compared with motilin and erythromycin, ref [52], [53]): more potent desensitization-inducing effect compared with motilin and erythromycin
- receptor internalization (MTLR [1]; ref [52], [53]): relatively high ability to induce receptor internalization

Molecule: C[C@H]1CN(Cc2ccc(CC(=O)N3CCC(Nc4cccc(F)c4)CC3)cc2)CCN1 [Camicinal, camicinal]
- gastric cholinergic activity (GI motility; ref [51]): long-lasting gastric cholinergic activity
- oral effectiveness as MTLR agonist (MTLR [2]; ref [51]): orally effective MTLR agonist
- receptor selectivity (MTLR [3]): high receptor selectivity

Molecule: CC[C@H]1OC(=O)[C@H](C)[C@@H](O[C@H]2C[C@@](C)(OC)[C@@H](O)[C@H](C)O2)[C@H](C)[C@@H](O[C@@H]2O[C@H](C)C[C@H](N(C)C)[C@H]2O)[C@](C)(O)C[C@@H](C)CN(C)[C@H](C)[C@@H](O)[C@]1(C)O [azithromycin]
- GI motility activity (GI motility; ref [9]): mimic the GI motility activity of motilin
- GI disturbances ([4]; long-term use, azithromycin, ref [4], [15]): often causes unexpected GI disturbances

Molecule: CC[C@H]1OC(=O)[C@H](C)[C@@H](O[C@H]2C[C@@](C)(OC)[C@@H](O)[C@H](C)O2)[C@H](C)[C@@H](O[C@@H]2O[C@H](C)C[C@H](N(C)C)[C@H]2O)[C@](C)(O)C[C@@H](C)C(=O)[C@H](C)[C@@H](O)[C@]1(C)O [erythromycin]
- erythromycin activity (in words) (MTLR L341A): markedly decreased erythromycin activities
- role of ECL2 regions of MTLR for erythromycin (MTLR [5]; ref [16], [35]): not critical for erythromycin
- effectiveness in gastroparesis (gastroparesis): effective treatment for gastroparesis
- GI contractile activity (GI motility; ref [9], [10]): mimic exogenous motilin in GI contractile activity
- GI motility activity (GI motility; ref [9]): mimic the GI motility activity of motilin
- weaker MTLR activation ability than motilin (MTLR [2]; erythromycin versus motilin, ref [4]): ~ 1000 -fold
- MTLR agonism (MTLR [2]; ref [11]): agonist for MTLR
- ligand activity [6]: marked decrease in ligand activity

Molecule: CC[C@H]1OC(=O)[C@H](C)[C@@H](O[C@H]2C[C@@](C)(OC)[C@@H](O)[C@H](C)O2)[C@H](C)[C@@H](O[C@@H]2O[C@H](C)C[C@H](N(C)C(C)C)[C@H]2O)[C@@]2(C)CC(C)=C(O2)[C@H](C)C(=O)[C@]1(C)OC [mitemcinal]
- desensitization effect (MTLR [1]; ref [54]): much more improved

Molecule: atilmotin
- adverse effects ([4]; ref [50]): not associated with any central nervous system–, respiratory system–, or cardiovascular system–related adverse effects

Molecule: motilin analog [1-12]: motilin analog [1-12] (FVPIFTYGELQR; Motilin; UniProt P12872 26-37, looked up, fragment)
- fold increased binding affinity (MTLR [5]; motilin analog [1-12] compared with analog [1-11], ref [4]): 158 -fold
